Experimental findings from ChEMBL document CHEMBL1122804, “Synthesis of imidazo[1,2-a]pyrazine derivatives with uterine-relaxing, antibronchospastic, and cardiac-stimulating properties” (1984) are described below.

Where only a bound is given, the exact number is not on record here.

The species entered for one test is Cavia porcellus. Nature of the test: Inhibition of the bronchospasm induced by histamine in guinea pig at the high concentration/dose. The test is classed as functional.
Conditions: not given
As for `CCOC(=O)c1cn2cc(Br)nc(Br)c2n1`, the ED50 is >0.016 µM.

For a further test, the species on record is Cavia porcellus. Nature of the test: Inhibition of the bronchospasm induced by histamine in guinea pigat the high concentration / dose.
Conditions: not given
The test is classed as functional.
Regarding `ClCc1cn2ccncc2n1`, the ED50 was >0.072 µM.

The species named for another test is Rattus norvegicus. Nature of the test: Inhibition of the uterine smooth muscle contraction induced by histamine on the isolated rat uterus at high dose /concentration. It is filed as functional. The following applies: read-out: ED50 (the source's name).
Turning to `NC(=O)c1cn2cc(Br)nc(Br)c2n1`, the EC50 came out at 0.00033 µM.

Another test is filed under the species Rattus norvegicus. Nature of the test: Inhibition of the uterine smooth muscle contraction induced by histamine on the isolated rat uterus. The test is classed as functional. To be noted: read-out: ED50.
Take `CCOC(=O)c1cn2c(Br)cncc2n1`: the EC50 is 1020 µM.

For `N#Cc1cn2c(Br)cncc2n1`, the EC50 amounted to 780 µM.

Consider `NC(=O)c1cn2ccncc2n1`, for which the EC50 turned out to be 1500 µM.

`Cn1c(=O)c2nc[nH]c2n(C)c1=O` [THEOPHYLLINE]: the EC50 is 900 µM.

Regarding `CCOC(=O)c1cn2ccncc2n1`, the EC50 is 1110 µM.

On to `O=C(O)c1cn2ccncc2n1`, for which the EC50 amounted to 1720 µM.

Take `ClCc1cn2ccncc2n1`: the EC50 turned out to be 1400 µM.

Turning to `NC(=O)c1cn2c(Br)cncc2n1`, the EC50 was found to be 410 µM.

For the molecule `OCc1cn2ccncc2n1`, the EC50 is 2700 µM.

`CC(=O)c1c(Cl)nc2cnccn12`: the EC50 was 880 µM.

As to `CCOC(=O)c1[nH]c2nccnc2c1C`, the EC50 was determined as 102 µM.

`Brc1cn2ccnc2c(Br)n1`: the EC50 stood at 240 µM.

Turning to `Brc1cncc2nccn12`, the EC50 was 290 µM.

`Cc1cn2ccncc2n1`: the EC50 was 750 µM.

With `CCOC(=O)c1cn2cc(Br)nc(Br)c2n1`, the EC50 was determined as 150 µM.

Regarding `CCOC(=O)Cc1cn2cc(Br)nc(Br)c2n1`, the EC50 worked out at 96 µM.

For the molecule `N#Cc1cn2ccncc2n1`, the EC50 was 2380 µM.

In the case of `CCOC(=O)c1c(C)nc2cnccn12`, the EC50 was determined as 152 µM.

The species entered for another test is Rattus norvegicus. Nature of the test: Inhibition of the uterine smooth muscle contraction induced by histamine on the isolated rat uterus. It is filed as functional. To be noted: read-out: ED50 (the source's name).
In the case of `c1cn2ccnc2cn1`, the EC50 was found to be 0.0016 µM.

The species named for the next test is Rattus norvegicus. The experiment in a line: Inhibition of the uterine smooth muscle contraction induced by histamine on the isolated rat uterus at high dose. The following applies: read-out: ED50 (the source's name). The test is classed as functional.
As for `N#Cc1cn2cc(Br)nc(Br)c2n1`, the EC50 came out at 0.09 nM.

As for `Nc1nc2cnccn2c1Br`, the EC50 is 0.34 nM.

The species named for the next test is Rattus norvegicus. Nature of the test: Inhibition of the uterine smooth muscle contraction induced by histamine on the isolated rat uterus at high dose. The test is classed as functional. To be noted: read-out: ED50 (the source's name).
Regarding `COC(=O)c1cn2ccncc2n1`, the EC50 was > 0.0024 µM.
